Assays:
[1] = tested on: DU-145 prostate cancer cells; assay: sensitization of MRP-expressing prostate cancer cells to drug (Table XVII); format: cell-based, human
[2] = tested on: drug-sensitive (parent) cancer cell lines; assay: drug sensitization of drug-sensitive (parent) cancer cell lines (Table XVII); format: cell-based, human
Source text: The enhanced reduction in P-glycoprotein expression due to the combined antisense and aptameric-like effects likely causes the associated reduction in cell proliferation. It has been previously shown that treating P-glycoprotein-expressing cells with monoclonal antibodies capable of binding to and blocking P-glycoprotein function leads to a substantial reduction in the proliferation of the treated cells. […] The term “aptameric-like” is used because the effect seen is seen with some sequences but not others (aptameric); aptameric-like effects are substantially more common among ODN sequences than are the usual aptameric effects. […] In general, this situation in which the antisense and an aptameric-like effect of an ODN both act to reduce expression of the same gene (e.g., MDR1) can be expected to be a very uncommon finding among antisense ODN therapeutics directed to other gene targets. […]

[3] = tested on: AML blast cells freshly obtained from patients; assay: junD ODN on fresh AML blasts: suspension culture viable counts and blast colony assay; format: cell-based, human; details: 7 days incubation, suspension culture viable cell counts
Experimental: In the initial tests, the H(1)junD oligo or a control ODN were incubated with AML blast cells for seven days. The blast cells were freshly obtained from patients with AML and were cultured and evaluated for ODN effects as described by Bayever et al.(Leukemia and Lymphoma 12: 223-231, 1994). In brief, after the incubation with ODNs, the blast cells were then washed, and adjusted to 10^5 cells per ml and continued in culture for several more days. Viable cell counts were performed every 2-3 days on suspension cultures and oligo-treated blast cells were plated in the “blast colony assay” to determine the effects of the ODNs on the leukemic stem cells.

ovarian carcinoma = assay: anticancer effect of junD ODN on solid tumors; format: cell-based
8226/Dox cells = assay: sensitization of P-glycoprotein-expressing drug-resistant cells to vincristine (Table XVII); format: cell-based, human; details: for Fold increase in Drug Sensitivity: 8226/Dox6 cells, versus media control; for sensitization to vincristine: P-glycoprotein-expressing drug-resistant 8226/Dox
Experimental: To determine relative activity among the various MDR1 antisense ODNs, they were incubated at several different ODN concentrations in cell culture medium with the human multiple myeloma cell lines 8226/Dox4 or 8226/Dox6 (gifts of Dr. William Dalton, University of Arizona Cancer Center, Tucson) (Dalton et al., Cancer Res. 46: 5125, 1986). Specifically, the human myeloma cells were incubated with the antisense ODNs for four (4) days, in a humidified, 5% CO2 atmosphere containing a reduced oxygen level of 5%, maintained by purging the culture incubator with nitrogen gas in place of ambient room air. Addition of an antioxidant to the cultures during exposure of the cells to the ODN further reduces the effects of the free radicals induced by the ODNs on cells (this effect can include increased expression of MDR1). The cell cultures were then incubated with a chemotherapeutic anti-cancer agent overnight (15-18 hrs), after which the cell cultures were washed repeatedly and then seeded into 96-well microtest plates to permit quantitative analysis of their growth. Tritiated-thymidine was added to these cultures for 18-hrs prior to termination of the assays on day 4 following exposure to the anticancer agents. Each test combination of cells, antisense ODN and anti-cancer agent was run in quadruplicate replicates.

Row | Substance | sensitization to chemotherapeutic agent ([1]; DU-145, express MRP and not P-glycoprotein) | Fold increase in Drug Sensitivity ([1]; DU-145 cells, versus media control) | drug sensitization of drug-sensitive lines [2] | Fold increase in Drug Sensitivity ([2]; 8226/sensitive parent cells, versus media control) | antileukemic effect [3] | cytotoxic or anticancer growth-inhibitory effect on malignant cell lines (malignant cell lines) | anticancer effects on solid tumors (ovarian carcinoma) | Fold increase in Drug Sensitivity (8226/Dox cells) | sensitization to vincristine (8226/Dox cells)
1 | H(1)junD: junD antisense ODN, GTCGGCGTGG TGGTGA (antisense GTCGGCGTGGTGGTGA; DNA, backbone and methylation of C not given here; listed as Homo sapiens) | sensitize | 19 | minimal sensitizing potential | 3 | as great or a greater antileukemic effect than OL(1)p53 | less of a cytotoxic or anticancer growth-inhibitory effect | anticancer effects | 500 | sensitize
2 | H(2)junD: junD antisense ODN, GCTCGTCGGC GTGGTGGTGA (antisense GCTCGTCGGCGTGGTGGTGA; DNA, backbone and methylation of C not given here; listed as Homo sapiens) |  |  |  |  |  | less of a cytotoxic or anticancer growth-inhibitory effect |  | 1091 | sensitize
